# Assay results reported in patent US4568646A, “Preparation of antibiotic LL-D05139β from cultures of Glycomyces harbinensis, gen. nov., sp. nov” (American Cyanamid Company, priority 1985, dated 1986).
# Experiments:
# [1] = test system: human colon carcinoma (CX-1); experiment: Human tumor clonogenic (stem cell) assay, colon carcinoma; format: cell-based
# Protocol: (§1) This test was performed essentially by the method of A. Hamburger and S. Salmon, Primary bioassay of human tumor stem cells., Science, 197: 461-463 (1977). Human colon carcinoma (CX-1) and human lung carcinoma (LX-1) tumors were obtained from the National Cancer Institute and propagated in athymic Balb/c mice. Freshly removed tumors were dispersed with trypsin 0.25% and 5×10^4 lung carcinoma cells or 1×10^5 colon carcinoma cells in soft (0.3%) agarose medium containing 0.1 ml of test drug were plated onto a solidified (0.5%) agarose base medium in 35 mm grided dishes. Cultures were incubated at 37° C. in a humidified 5% carbon dioxide in air atmosphere. Colonies were counted after 10-11 days. A compound is considered active if the treated/control (T/C) value is ≤30%, representing a 70% cell kill.
# [2] = test system: human lung carcinoma (LX-1); experiment: Human tumor clonogenic (stem cell) assay, lung carcinoma; format: cell-based; conditions: for T/C (treated/control colonies): Lung Carcinoma
# Protocol: as §1
# [3] = Stability in solution as a function of pH; format: physicochemical
smiles,measurement,setting,value
"C[C@H](N)C(=O)N[C@@H](COC(=O)C=[N+]=[N-])C(=O)O [LL-D05139β, N-L-alanyl-L-serine diazoacetate]",T/C (treated/control colonies),"[1]; Colon Carcinoma, concentration 2 mgc/ml",16.0%
same,Activity in human tumor clonogenic assay (active if T/C ≤30%),"[1]; colon (CX-1) carcinoma, at 2.0 mcg/ml and higher doses",active
same,T/C (treated/control colonies),[2]; concentration 2 mgc/ml,23.2%
same,T/C (treated/control colonies),[2]; concentration 20 mgc/ml,17.8%
same,T/C (treated/control colonies),[2]; concentration 200 mgc/ml,13.0%
same,Activity in human tumor clonogenic assay (active if T/C ≤30%),"[2]; human lung (LX-1) carcinoma, at 2.0 mcg/ml and higher doses",active
same,Stability in solution,[3]; below pH 5.0,Decomposes rapidly
same,Stability in solution,[3]; weakly basic solutions,stable
